These are literature values, as cited in patent publication US20100247645A1 (priority 2007, published 2010).

For this data set the following is noted: class 3 = high solubility, low permeability.

Consider `COCCCOc1cc(C[C@@H](C[C@H](N)[C@@H](O)C[C@H](C(=O)NCC(C)(C)C(N)=O)C(C)C)C(C)C)ccc1OC` [Aliskiren, 2(S),4(S),5(S),7(S)—N-(3-amino-2,2-dimethyl-3-oxopropyl)-2,7-di(1-methylethyl)-4-hydroxy-5-amino-8-[4-methoxy-3-(3-methoxy-propoxy)phenyl]-octanamide], for which the “BCS (biopharmaceutical classification system) class” value is “class 3”.
